Laboratory results as given in the NIST ThermoML archive (doi:10.1016/j.jct.2015.02.011).

Assay: xn = mol fraction of the nth substance listed
Conditions: 100.7 kPa, Liquid; for speed of sound: Frequency=3 MHz, Sing-around technique in a fixed-path interferometer; for mass density: Vibrating tube method

CCCCCCCC[n+]1ccn(C)c1.F[P-](F)(F)(F)(F)F [1-octyl-3-methylimidazolium hexafluorophosphate] + C1CCOC1
Conditions	mass density [kg/m3]	speed of sound [m/s]
293.15 K, x1 = 0.0767	972.545	1319.1
293.15 K, x1 = 0.1791	1048.06	1338.4
293.15 K, x1 = 0.2783	1097.51	1356
293.15 K, x1 = 0.3996	1139.52	1371.5
293.15 K, x1 = 0.5198	1169.49	1384.1
293.15 K, x1 = 0.612	1187.49	1392.2
293.15 K, x1 = 0.6957	1201.25	1399
293.15 K, x1 = 0.7754	1212.53	1405.2
293.15 K, x1 = 0.8991	1227.92	1414
293.15 K, x1 = 1	1238.77	1421.2
298.15 K, x1 = 0.0767	967.476	1297.5
298.15 K, x1 = 0.1791	1043.39	1320.2
298.15 K, x1 = 0.2783	1092.94	1339.2
298.15 K, x1 = 0.3996	1135.15	1355.5
298.15 K, x1 = 0.5198	1165.32	1368.6
298.15 K, x1 = 0.612	1183.35	1376.8
298.15 K, x1 = 0.6957	1197.12	1383.9
298.15 K, x1 = 0.7754	1208.52	1390.5
298.15 K, x1 = 0.8991	1223.83	1399.8
298.15 K, x1 = 1	1234.79	1406.5
303.15 K, x1 = 0.0767	962.388	1276.5
303.15 K, x1 = 0.1791	1038.59	1302.6
303.15 K, x1 = 0.2783	1088.35	1322.5
303.15 K, x1 = 0.3996	1130.86	1340.1
303.15 K, x1 = 0.5198	1161.03	1353.2
303.15 K, x1 = 0.612	1179.13	1361.9
303.15 K, x1 = 0.6957	1193.04	1369.2
303.15 K, x1 = 0.7754	1204.52	1376.1
303.15 K, x1 = 0.8991	1219.78	1385.8
303.15 K, x1 = 1	1230.84	1392.4
308.15 K, x1 = 0.0767	957.488	1254.8
308.15 K, x1 = 0.1791	1033.77	1283.4
308.15 K, x1 = 0.2783	1083.82	1304.2
308.15 K, x1 = 0.3996	1126.53	1323.2
308.15 K, x1 = 0.5198	1157	1338.3
308.15 K, x1 = 0.612	1175.28	1347.8
308.15 K, x1 = 0.6957	1189.11	1355.3
308.15 K, x1 = 0.7754	1200.62	1362.2
308.15 K, x1 = 0.8991	1216.13	1371.3
308.15 K, x1 = 1	1227.09	1379
313.15 K, x1 = 0.0767	952.422	1231.1
313.15 K, x1 = 0.1791	1028.9	1263.7
313.15 K, x1 = 0.2783	1079.26	1286.5
313.15 K, x1 = 0.3996	1122.17	1309.5
313.15 K, x1 = 0.5198	1152.84	1324.6
313.15 K, x1 = 0.612	1171.22	1334
313.15 K, x1 = 0.6957	1185.14	1341.6
313.15 K, x1 = 0.7754	1196.65	1348.4
313.15 K, x1 = 0.8991	1212.37	1357.6
313.15 K, x1 = 1	1223.3	1365.8
318.15 K, x1 = 0.0767	947.162	1209
318.15 K, x1 = 0.1791	1024.04	1242.4
318.15 K, x1 = 0.2783	1074.69	1268.7
318.15 K, x1 = 0.3996	1117.75	1292.1
318.15 K, x1 = 0.5198	1148.57	1309.3
318.15 K, x1 = 0.612	1167.05	1319.7
318.15 K, x1 = 0.6957	1181.01	1327
318.15 K, x1 = 0.7754	1192.68	1333.4
318.15 K, x1 = 0.8991	1208.44	1342.7
318.15 K, x1 = 1	1219.5	1351.2
323.15 K, x1 = 0.0767	941.999	1185.7
323.15 K, x1 = 0.1791	1019.03	1222.6
323.15 K, x1 = 0.2783	1069.89	1250.7
323.15 K, x1 = 0.3996	1113.1	1276.2
323.15 K, x1 = 0.5198	1144.07	1294.4
323.15 K, x1 = 0.612	1162.61	1305.3
323.15 K, x1 = 0.6957	1176.74	1313
323.15 K, x1 = 0.7754	1188.63	1319.2
323.15 K, x1 = 0.8991	1204.28	1329.8
323.15 K, x1 = 1	1215.42	1338

CCCCn1cc[n+](C)c1.F[P-](F)(F)(F)(F)F [1-butyl-3-methylimidazolium hexafluorophosphate] + C1CCOC1
Conditions	mass density [kg/m3]	speed of sound [m/s]
293.15 K, x1 = 0.0871	995.952	1325.2
293.15 K, x1 = 0.1801	1081.84	1346.3
293.15 K, x1 = 0.2893	1156.12	1370.2
293.15 K, x1 = 0.3939	1209.17	1390.1
293.15 K, x1 = 0.4994	1250.52	1405.6
293.15 K, x1 = 0.5709	1274.06	1414.3
293.15 K, x1 = 0.7163	1313.42	1431.1
293.15 K, x1 = 0.8069	1333.96	1439.1
293.15 K, x1 = 0.9012	1352.78	1447.9
293.15 K, x1 = 1	1370.41	1454.6
298.15 K, x1 = 0.0871	993.083	1305.7
298.15 K, x1 = 0.1801	1078.67	1329.4
298.15 K, x1 = 0.2893	1153.55	1354.8
298.15 K, x1 = 0.3939	1206.51	1375.2
298.15 K, x1 = 0.4994	1247.95	1391.7
298.15 K, x1 = 0.5709	1270.99	1400.3
298.15 K, x1 = 0.7163	1309.95	1419.2
298.15 K, x1 = 0.8069	1330.6	1428.8
298.15 K, x1 = 0.9012	1349.01	1436.5
298.15 K, x1 = 1	1366.26	1442.3
303.15 K, x1 = 0.0871	989.595	1286.1
303.15 K, x1 = 0.1801	1076.18	1313.5
303.15 K, x1 = 0.2893	1151.06	1337.9
303.15 K, x1 = 0.3939	1204.02	1359.3
303.15 K, x1 = 0.4994	1245.06	1375.7
303.15 K, x1 = 0.5709	1268.4	1386.6
303.15 K, x1 = 0.7163	1306.96	1406.2
303.15 K, x1 = 0.8069	1327.01	1416.4
303.15 K, x1 = 0.9012	1345.27	1425.1
303.15 K, x1 = 1	1362.13	1430.2
308.15 K, x1 = 0.0871	986.865	1264.2
308.15 K, x1 = 0.1801	1073.65	1294.6
308.15 K, x1 = 0.2893	1148.53	1322.9
308.15 K, x1 = 0.3939	1201.49	1344.4
308.15 K, x1 = 0.4994	1242.03	1362.9
308.15 K, x1 = 0.5709	1265.07	1374.2
308.15 K, x1 = 0.7163	1303.84	1394.4
308.15 K, x1 = 0.8069	1323.78	1404.5
308.15 K, x1 = 0.9012	1341.44	1414.8
308.15 K, x1 = 1	1357.86	1418.4
313.15 K, x1 = 0.0871	983.099	1243.5
313.15 K, x1 = 0.1801	1072.08	1276.9
313.15 K, x1 = 0.2893	1145.97	1306.3
313.15 K, x1 = 0.3939	1198.83	1329.7
313.15 K, x1 = 0.4994	1239.66	1347.2
313.15 K, x1 = 0.5709	1261.91	1358.4
313.15 K, x1 = 0.7163	1300.27	1380.9
313.15 K, x1 = 0.8069	1320.11	1392.8
313.15 K, x1 = 0.9012	1337.58	1398.9
313.15 K, x1 = 1	1353.88	1406.7
318.15 K, x1 = 0.0871	979.072	1220.9
318.15 K, x1 = 0.1801	1069.07	1258.4
318.15 K, x1 = 0.2893	1144.86	1289.6
318.15 K, x1 = 0.3939	1197.02	1313.9
318.15 K, x1 = 0.4994	1238.26	1333
318.15 K, x1 = 0.5709	1259.52	1344
318.15 K, x1 = 0.7163	1297.6	1367.3
318.15 K, x1 = 0.8069	1316.65	1380.3
318.15 K, x1 = 0.9012	1333.97	1389.5
318.15 K, x1 = 1	1349.88	1395.2
323.15 K, x1 = 0.0871	974.942	1200.6
323.15 K, x1 = 0.1801	1067.03	1239.9
323.15 K, x1 = 0.2893	1143.59	1272.2
323.15 K, x1 = 0.3939	1195.57	1295.6
323.15 K, x1 = 0.4994	1235.58	1319.5
323.15 K, x1 = 0.5709	1256.95	1330.6
323.15 K, x1 = 0.7163	1294.51	1355.4
323.15 K, x1 = 0.8069	1312.86	1368.5
323.15 K, x1 = 0.9012	1329.92	1378.6
323.15 K, x1 = 1	1345.57	1384.1
